Measured values reported in US8361998B2, “Compounds and their use as IKACh blockers” (AstraZeneca AB, priority 2010, dated 2013).

The compounds below were run against T1, human cardiac ion channel proteins hKir3.1/Kir3.4 (Homo sapiens, UniProt P48544+P48549) (assay: Atomic Absorption Screening (AAS) Rb efflux assay of hKir3.1/Kir3.4 block, carbachol/high K+ stimulated, 10-pt or 7-pt CR). Conditions: 7-pt CR (0.037 to 27 μmol/L), AAS Rb efflux, CHO-K1 cells expressing hKir3.1/Kir3.4; mean of >3 replicates; read-out: IKACh IC50 7-pt CR, AAS.
T1 construct: expressed in transfected cells
T1 sequence (P48549 1-501): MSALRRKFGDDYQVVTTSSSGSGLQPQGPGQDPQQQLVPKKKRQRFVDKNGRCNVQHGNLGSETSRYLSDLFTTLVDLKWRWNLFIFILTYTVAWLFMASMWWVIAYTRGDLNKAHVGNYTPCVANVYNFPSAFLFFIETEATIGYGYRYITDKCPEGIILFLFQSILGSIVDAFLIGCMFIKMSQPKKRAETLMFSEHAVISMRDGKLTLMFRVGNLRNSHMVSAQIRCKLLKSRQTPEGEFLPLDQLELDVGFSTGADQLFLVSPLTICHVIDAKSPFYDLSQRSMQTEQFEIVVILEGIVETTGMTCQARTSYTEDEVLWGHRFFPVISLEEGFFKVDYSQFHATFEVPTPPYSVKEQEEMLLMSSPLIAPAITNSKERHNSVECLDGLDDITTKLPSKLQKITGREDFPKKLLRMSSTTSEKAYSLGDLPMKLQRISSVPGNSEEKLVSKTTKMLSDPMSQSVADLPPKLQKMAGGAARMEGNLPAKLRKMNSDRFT
T1 sequence (P48544 1-419): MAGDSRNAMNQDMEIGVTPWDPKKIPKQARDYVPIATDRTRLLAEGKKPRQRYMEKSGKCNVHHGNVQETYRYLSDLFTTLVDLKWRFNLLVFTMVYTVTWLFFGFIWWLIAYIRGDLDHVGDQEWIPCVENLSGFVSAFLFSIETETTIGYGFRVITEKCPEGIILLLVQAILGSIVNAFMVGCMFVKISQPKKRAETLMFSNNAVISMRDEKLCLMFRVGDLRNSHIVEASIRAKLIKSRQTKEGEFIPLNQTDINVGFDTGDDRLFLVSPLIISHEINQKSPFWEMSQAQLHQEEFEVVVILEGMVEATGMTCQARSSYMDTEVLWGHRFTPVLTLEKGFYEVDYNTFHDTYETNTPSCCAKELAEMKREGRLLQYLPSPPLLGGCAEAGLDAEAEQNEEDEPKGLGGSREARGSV
Format: cell-based
Method in brief: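 CHO-K1 cells stably co-expressing human Kir3.1/Kir3.4 were Rb-loaded for 3 h at 37° C, preincubated with compound 5 min at RT, then stimulated 10 min with 10 μM carbachol plus 20 mM KCl (final). Supernatant Rb was measured by atomic absorption. Compounds ran at 0.003–67 μmol/L (10-pt) or 0.037–27 μmol/L (7-pt), threefold dilutions; IC50s are means of >4 or >3 replicates respectively.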
`COc1cc(C(=O)N(C)[C@H](CN2CCCC2)C(C)C)ccc1F` [Example 16.11, (S)-4-Fluoro-3-methoxy-N-methyl-N-(3-methyl-1-(pyrrolidin-1-yl)butan-2-yl)benzamide] was tested, and the IC50 was 11 µM.
Compound `CC(C)[C@@H](CN1CCCC1)N(C)C(=O)c1cc(F)cc(F)c1` [Example 16.12, (S)-3,5-Difluoro-N-methyl-N-(3-methyl-1-(pyrrolidin-1-yl)butan-2-yl)benzamide] has an IC50 of 23 µM.
Compound `Cc1c(F)cccc1C(=O)N(C)[C@H](CN1CCCC1)C(C)C` [Example 16.13, (S)-3-Fluoro-N,2-dimethyl-N-(3-methyl-1-(pyrrolidin-1-yl)butan-2-yl)benzamide] has an IC50 of 5.3 µM.
`Cc1ccc(C(=O)N(C)[C@H](CN2CCCC2)C(C)C)cc1` [Example 16.14, (S)—N,4-Dimethyl-N-(3-methyl-1-(pyrrolidin-1-yl)butan-2-yl)benzamide] was tested, and the IC50 was 6.7 µM.
Compound `CC(C)[C@@H](CN1CCCC1)N(C)C(=O)c1ccc(OC(F)(F)F)cc1` [Example 16.15, (S)—N-Methyl-N-(3-methyl-1-(pyrrolidin-1-yl)butan-2-yl)-4-(tri-fluoromethoxy)benzamide] has an IC50 of 2.5 µM.
`CC(C)[C@@H](CN1CCCC1)N(C)C(=O)c1cccc(OC(F)(F)F)c1` [Example 16.16, (S)—N-Methyl-N-(3-methyl-1-(pyrrolidin-1-yl)butan-2-yl)-3-(tri-fluoromethoxy)benzamide] showed an IC50 of 2.6 µM.
In the case of `CC(C)[C@@H](CN1CCCC1)N(C)C(=O)c1cccc(Cl)c1F` [Example 16.17, (S)-3-Chloro-2-fluoro-N-methyl-N-(3-methyl-1-(pyrrolidin-1-yl)butan-2-yl)benzamide], the IC50 is reported as 1.2 µM.
Compound `CC(C)[C@@H](CN1CCCC1)N(C)C(=O)c1ccccc1F` [Example 16.18, (S)-2-Fluoro-N-methyl-N-(3-methyl-1-(pyrrolidin-1-yl)butan-2-yl)benzamide] has an IC50 of 11 µM.
For `CC(C)[C@@H](CN1CCCC1)N(C)C(=O)c1c(F)cccc1C(F)(F)F` [Example 16.19, (S)-2-Fluoro-N-methyl-N-(3-methyl-1-(pyrrolidin-1-yl)butan-2-yl)-6-(trifluoromethyl)benzamide], the IC50 was 14 µM.
In the case of `CC(C)[C@@H](CN1CCCC1)N(C)C(=O)c1ccccc1C(F)(F)F` [Example 16.20, (S)—N-Methyl-N-(3-methyl-1-(pyrrolidin-1-yl)butan-2-yl)-2-(trifluoromethyl)benzamide], the IC50 is reported as 14 µM.
`CC(C)[C@@H](CN1CCCC1)N(C)C(=O)c1cc(F)c(F)c(F)c1` [Example 16.21, (S)-3,4,5-Trifluoro-N-methyl-N-(3-methyl-1-(pyrrolidin-1-yl)butan-2-yl)benzamide] gave an IC50 of 12 µM.
With `CC(C)[C@@H](CN1CCCC1)N(C)C(=O)c1cc(F)ccc1F` [Example 16.22, (S)-2,5-Difluoro-N-methyl-N-(3-methyl-1-(pyrrolidin-1-yl)butan-2-yl)benzamide] the IC50 was 18 µM.
`CC(C)[C@@H](CN1CCCC1)N(C)C(=O)c1ccc(F)cc1C(F)(F)F` [Example 16.23, (S)-4-Fluoro-N-methyl-N-(3-methyl-1-(pyrrolidin-1-yl)butan-2-yl)-2-(trifluoromethyl)benzamide] was tested, and the IC50 was 6.7 µM.
`CC(C)[C@@H](CN1CCCC1)N(C)C(=O)c1c(F)cccc1F` [Example 16.24, 2,6-Difluoro-N-methyl-N-[(1S)-2-methyl-1-(pyrrolidin-1-ylmethyl)propyl]benzamide] showed an IC50 greater than 27 µM.
`Cc1cc(C(=O)N(C)[C@H](CN2CCCCC2)C(C)C)ccc1Cl` [Example 16.25, 4-Chloro-N,3-dimethyl-N-[(1S)-2-methyl-1-(piperidin-1-ylmethyl)propyl]benzamide] showed an IC50 of 2.8 µM.
`CC(C)[C@@H](CN1CCCCC1)N(C)C(=O)c1ccc(F)cc1Cl` [Example 16.26, 2-Chloro-4-fluoro-N-methyl-N-[(1S)-2-methyl-1-(piperidin-1-yl-methyl)propyl]benzamide] gave an IC50 of 4.8 µM.
For `CC(C)[C@@H](CN1CCCCC1)N(C)C(=O)c1ccc(Br)cc1` [Example 16.27, 4-Bromo-N-methyl-N-[(1S)-2-methyl-1-(piperidin-1-ylmethyl)propyl]benzamide], the IC50 was 4 µM.
`CC(C)[C@@H](CN1CCCCC1)N(C)C(=O)c1ccc(Cl)c(Cl)c1` [Example 16.28, 3,4-Dichloro-N-methyl-N-[(1S)-2-methyl-1-(piperidin-1-ylmethyl)propyl]benzamide] gave an IC50 of 0.84 µM.
`Cc1cccc(C(=O)N(C)[C@H](CN2CCCCC2)C(C)C)c1` [Example 16.29, N,3-Dimethyl-N-[(1S)-2-methyl-1-(piperidin-1-ylmethyl)propyl]benzamide] showed an IC50 of 8.8 µM.
`CC(C)[C@@H](CN1CCCCC1)N(C)C(=O)c1ccc(Cl)cc1Cl` [Example 16.30, 2,4-Dichloro-N-methyl-N-[(1S)-2-methyl-1-(piperidin-1-ylmethyl)propyl]benzamide] gave an IC50 of 1.7 µM.
Work on `CC(C)[C@@H](CN1CCCCC1)N(C)C(=O)c1ccc(Cl)cc1F` [Example 16.31, 4-Chloro-2-fluoro-N-methyl-N-[(1S)-2-methyl-1-(piperidin-1-ylmethyl)propyl]-benzamide] yielded an IC50 of 2.4 µM.
With `CC(C)[C@@H](CN1CCCCC1)N(C)C(=O)c1cccc(C(F)(F)F)c1` [Example 16.32, N-Methyl-N-[(1S)-2-methyl-1-(piperidin-1-ylmethyl)propyl]-3-(trifluoromethyl)-benzamide] the IC50 was 4 µM.
Compound `CC(C)[C@@H](CN1CCCCC1)N(C)C(=O)c1ccc(F)c(Cl)c1` [Example 16.33, 3-Chloro-4-fluoro-N-methyl-N-[(1S)-2-methyl-1-(piperidin-1-ylmethyl)propyl]-benzamide] has an IC50 of 6.7 µM.
`CC(C)[C@@H](CN1CCCCC1)N(C)C(=O)c1ccc(Cl)cc1` [Example 16.34, 4-Chloro-N-methyl-N-[(1S)-2-methyl-1-(piperidin-1-ylmethyl)propyl]benzamide] was tested, and the IC50 was 4.3 µM.
`CC(C)[C@@H](CN1CCCCC1)N(C)C(=O)c1cccc(Br)c1` [Example 16.35, (S)-3-Bromo-N-methyl-N-(3-methyl-1-(piperidin-1-yl)butan-2-yl)benzamide] gave an IC50 of 12 µM.
With `CC(C)[C@@H](CN1CCCCC1)N(C)C(=O)c1ccc(Br)c(F)c1` [Example 16.36, (S)-4-Bromo-3-fluoro-N-methyl-N-(3-methyl-1-(piperidin-1-yl)butan-2-yl)benzamide] the IC50 was 11 µM.
With `CC(C)[C@@H](CN1CCCCC1)N(C)C(=O)c1cccc(Cl)c1` [Example 16.37, (S)-3-Chloro-N-methyl-N-(3-methyl-1-(piperidin-1-yl)butan-2-yl)benzamide] the IC50 was 14 µM.
`Cc1c(F)cccc1C(=O)N(C)[C@H](CN1CCCCC1)C(C)C` [Example 16.38, (S)-3-Fluoro-N,2-dimethyl-N-(3-methyl-1-(piperidin-1-yl)butan-2-yl)benzamide] showed an IC50 of 17 µM.
`CC(C)[C@@H](CN1CC[C@H](O)C1)N(C)C(=O)c1cccc(Cl)c1F` [Example 16.39, 3-Chloro-2-fluoro-N-[(1S)-1-{[(3S)-3-hydroxypyrrolidin-1-yl]methyl}-2-methylpropyl]-N-methylbenzamide] was tested, and the IC50 was 3.9 µM.
Compound `Cc1cc(C(=O)N(C)[C@H](CN2CC[C@H](O)C2)C(C)C)ccc1F` [Example 16.40, 4-Fluoro-N-[(1S)-1-{[(3S)-3-hydroxypyrrolidin-1-yl]methyl}-2-methylpropyl]-N,3-dimethylbenzamide] has an IC50 of 3.2 µM.

Same assay, conditions: 10-pt CR (0.003 to 67 μmol/L), AAS Rb efflux, CHO-K1 cells expressing hKir3.1/Kir3.4; mean of >4 replicates; read-out: IKACh IC50 10-pt CR, AAS
`CC(C)[C@@H](CN1CCCC1)N(C)C(=O)c1cc(F)cc(F)c1` [Example 16.12, (S)-3,5-Difluoro-N-methyl-N-(3-methyl-1-(pyrrolidin-1-yl)butan-2-yl)benzamide] was tested, and the IC50 was 15 µM.
`Cc1c(F)cccc1C(=O)N(C)[C@H](CN1CCCC1)C(C)C` [Example 16.13, (S)-3-Fluoro-N,2-dimethyl-N-(3-methyl-1-(pyrrolidin-1-yl)butan-2-yl)benzamide] was tested, and the IC50 was 14 µM.
`CC(C)[C@@H](CN1CCCC1)N(C)C(=O)c1c(F)cccc1F` [Example 16.24, 2,6-Difluoro-N-methyl-N-[(1S)-2-methyl-1-(pyrrolidin-1-ylmethyl)propyl]benzamide] showed an IC50 of 9.8 µM.
`Cc1cccc(C(=O)N(C)[C@H](CN2CCCCC2)C(C)C)c1` [Example 16.29, N,3-Dimethyl-N-[(1S)-2-methyl-1-(piperidin-1-ylmethyl)propyl]benzamide] gave an IC50 of 9.3 µM.
Work on `CC(C)[C@@H](CN1CCCCC1)N(C)C(=O)c1cccc(Cl)c1` [Example 16.37, (S)-3-Chloro-N-methyl-N-(3-methyl-1-(piperidin-1-yl)butan-2-yl)benzamide] yielded an IC50 of 15 µM.
